Here are results for 25 molecules from patent US4855287A, “Aminoglycoside compounds, processes for production thereof, and pharamaceutical composition containing the same” (Kowa Company, Ltd., priority 1985, dated 1989).

This assay concerns Bacillus subtilis ATCC 6633. Kind of assay: Test for antibacterial activity (paper disk, diameter of inhibitory zone, before and after incubation in rat liver/kidney homogenate). Format: cell-based. The following applies: 200 mcq/ml, 8 mm paper disk. Here is the method: Each of the test compounds shown in the following table was dissolved in a concentration of 200 mcq/ml in a homogenate of a 10% physiological saline solution of an organ of a rat, and incubated at 37° C. for 2 hours. An enzymatic reaction was stopped by adding an equal amount of ethanol. The antibacterial activity of the test compound before incubation was compared with that after incubation. The incubation was carried out in an equal amount mixture of a liver homogenate and a kidney homogenate. The antibacterial activity was measured by a paper disk having a diameter of 8 mm using Bacillus subtilis ATCC 6633 as a test organism, and shown by the diameter of the resulting inhibitory zone.

[1] abbreviates: ATCC6633, after incubation at 37° C. for 2 hours in rat liver homogenate and kidney homogenate, read-out: Diameter of the inhibitory zone, after incubation.
Where [2] appears, read: ATCC6633, before incubation, read-out: Diameter of the inhibitory zone, before incubation.

Structures are written as SMILES. Where two headings read alike, the source gives them in different places.

On to `CC(N)C1CCC(N)C(OC2C(N)CC(O)C(N(C)C(=O)CNC(=O)[C@@H](N)CCC(=O)Nc3cccc4ccccc34)C2O)O1` (stereo partly drawn) [Example 33, 2"-N-[N^γ-(1-naphthyl)-L-glutamin-yl]-de-O-methyl-KA-6606I], for which the zone of inhibition at 200 µg/mL was determined as 23.5 mm under setting [1] and 15.7 mm under setting [2].

With `CC(=O)NCCCNC(=O)CC[C@H](N)C(=O)NCC(=O)N(C)C1C(O)CC(N)C(OC2OC(C(C)N)CCC2N)C1O` (stereo partly drawn) [Example 34, 2"-N-[N^γ -(3-acetylaminopropyl)-L-glutaminyl]-5-de-O-methyl-KA-66061], the zone of inhibition at 200 µg/mL reads like this: under setting [1], 23.1 mm; under setting [2], 10.7 mm.

Regarding `CCCC(=O)NCCCNC(=O)CC[C@H](N)C(=O)NCC(=O)N(C)C1C(O)CC(N)C(OC2OC(C(C)N)CCC2N)C1O` (stereo partly drawn) [Example 35, 2"-N-[N^γ -(3-n-butyrylaminopropyl)-L-glutaminyl]-5de-O-methyl-KA-6606I], the zone of inhibition at 200 µg/mL by setting is: under setting [1], 20.7 mm; under setting [2], 10.7 mm.

For the molecule `CCCCCC(=O)NCCCNC(=O)CC[C@H](N)C(=O)NCC(=O)N(C)C1C(O)CC(N)C(OC2OC(C(C)N)CCC2N)C1O` (stereo partly drawn) [Example 36, 2"-N-[N^γ -(3-hexanoylaminopropyl)-L-glutaminyl]-5-de-O-methyl-KA-6606I], the zone of inhibition at 200 µg/mL reads like this: under setting [1], 22.8 mm; under setting [2], 10.5 mm.

As to `CCCCCCCC(=O)NCCCNC(=O)CC[C@H](N)C(=O)NCC(=O)N(C)C1C(O)CC(N)C(OC2OC(C(C)N)CCC2N)C1O` (stereo partly drawn) [Example 37, 2"-N-[N^γ -(3-octanoylaminopropyl)-L-glutaminyl]-5-do-O-methyl-KA-6606I], the zone of inhibition at 200 µg/mL runs as follows: under setting [1], 25.1 mm; under setting [2], 14.1 mm.

In the case of `CCCCCCCCCC(=O)NCCCNC(=O)CC[C@H](N)C(=O)NCC(=O)N(C)C1C(O)CC(N)C(OC2OC(C(C)N)CCC2N)C1O` (stereo partly drawn) [Example 38, 2"-N-[N^γ -(3-decanoylaminopropyl)-L-glutaminyl]-5-de-O-methyl-KA-6606I], the zone of inhibition at 200 µg/mL is 23.9 mm under setting [1] and 17.1 mm under setting [2].

Consider `CCCCCCCCCCCC(=O)NCCCNC(=O)CC[C@H](N)C(=O)NCC(=O)N(C)C1C(O)CC(N)C(OC2OC(C(C)N)CCC2N)C1O` (stereo partly drawn) [Example 39, 2"-N-[N^γ -(3-lauroylaminopropyl)-L-glutaminyl]-5-de-O-methyl-KA-6606I], for which the zone of inhibition at 200 µg/mL stood at 21.2 mm under setting [1] and 9.8 mm under setting [2].

For `CCCCCCCCCCCCCCCCCC(=O)NCCCNC(=O)CC[C@H](N)C(=O)NCC(=O)N(C)C1C(O)CC(N)C(OC2OC(C(C)N)CCC2N)C1O` (stereo partly drawn) [Example 40, 2"-N-[N^γ -(3-stearoylaminopropyl)-L-glutaminyl]-5-de-O-methyl-KA-6606I], the zone of inhibition at 200 µg/mL worked out at 16.6 mm under setting [1] and 14.1 mm under setting [2].

For `CCCCCCCCCCCCCCCCCCCCCCCC(=O)NCCCNC(=O)CC[C@H](N)C(=O)NCC(=O)N(C)C1C(O)CC(N)C(OC2OC(C(C)N)CCC2N)C1O` (stereo partly drawn) [Example 41, 2"-N-[N^γ -(3-lignocerolylaminopropyl)-L-glutaminyl]-5-de-O-methyl-KA-6606I], the zone of inhibition at 200 µg/mL reads like this: under setting [1], 14.1 mm; under setting [2], 8 mm.

On to `CC(N)C1CCC(N)C(OC2C(N)CC(O)C(N(C)C(=O)CNC(=O)[C@@H](N)CCC(=O)NCCCCCCCCO)C2O)O1` (stereo partly drawn) [Example 42, 2"-N-[N^γ -(8-hydroxyoctyl)-L-glutaminyl]-5-de-O-methyl-KA-6606I], for which the zone of inhibition at 200 µg/mL under setting [1] amounted to 23 mm and the zone of inhibition at 200 µg/mL under setting [2] turned out to be 15.1 mm.

As for `CC(C)OCCCNC(=O)CC[C@H](N)C(=O)NCC(=O)N(C)C1C(O)CC(N)C(OC2OC(C(C)N)CCC2N)C1O` (stereo partly drawn) [Example 43, 2"-N-[N^γ -(3-isopropoxypropyl)-L-glutaminyl]-5-de-O-methyl-KA-6606I], the zone of inhibition at 200 µg/mL under setting [1] came out at 18.4 mm and the zone of inhibition at 200 µg/mL under setting [2] came out at 10.8 mm.

For `CCCCCCNC(=O)CNC(=O)CC[C@H](N)C(=O)NCC(=O)N(C)C1C(O)CC(N)C(OC2OC(C(C)N)CCC2N)C1O` (stereo partly drawn) [Example 44, 2"-N-[N^γ -(hexylaminocarbonylmethyl)-L-glutaminyl]-5-de-O-methyl-KA-6606I], the zone of inhibition at 200 µg/mL under setting [1] is 20.2 mm and the zone of inhibition at 200 µg/mL under setting [2] stood at 8 mm.

For `CC(=O)OC1CCC2(C)C(CCC3C2CC(OC(C)=O)C2(C)C(C(C)CCC(=O)NCCCNC(=O)CCC(N)C(=O)NCC(=O)N(C)C4C(O)CC(N)C(OC5OC(C(C)N)CCC5N)C4O)CCC32)C1` [Example 45, 2"-N-{N^γ -[3-(3,12-di-O-acetyldeoxycholylamino)propyl]-L-glutaminyl}-5-de-O-methyl-KA-6606I], the zone of inhibition at 200 µg/mL runs as follows: under setting [1], 16.7 mm; under setting [2], 14.8 mm.

Turning to `CCCOC1CCC2(C)C(CCC3C2CC(OCCC)C2(C)C(C(C)CCC(=O)NCCCNC(=O)CCC(N)C(=O)NCC(=O)N(C)C4C(O)CC(N)C(OC5OC(C(C)N)CCC5N)C4O)CCC32)C1` [Example 46, 2"-N-{N^γ -[3-(3,12-di-O-propyldeoxycholylamino)propyl]-L-glutaminyl}-5-di-O-methyl-KA-6606I], the zone of inhibition at 200 µg/mL is, setting by setting: under setting [1], 16.6 mm; under setting [2], 15.9 mm.

Regarding `CC(N)C1CCC(N)C(OC2C(N)CC(O)C(N(C)C(=O)CNC(=O)[C@@H](N)CCC(=O)N[C@@H](Cc3ccccc3)C(=O)O)C2O)O1` (stereo partly drawn) [Example 47, 2"-N-{N^γ -[(s)-1-carboxy-2-phenyl-ethyl]-L-glutaminyl}-5-de-O-methyl-KA-6606I], the zone of inhibition at 200 µg/mL by setting is: under setting [1], 17.9 mm; under setting [2], 9.5 mm.

Regarding `CCCCCCCCCC(=O)NC(CCCCNC(=O)CC[C@H](N)C(=O)NCC(=O)N(C)C1C(O)CC(N)C(OC2OC(C(C)N)CCC2N)C1O)C(=O)OC` (stereo partly drawn) [Example 48, 2"-N-{N^γ -[5-(decanoylamino)-5-(methoxycarbonyl)pentyl]-L-glutaminyl}-5-de-O-methyl-KA-6606I], the zone of inhibition at 200 µg/mL by setting is: under setting [1], 18.3 mm; under setting [2], 18 mm.

As to `CCCCCCCCCC(=O)NCCCCC(NC(=O)CC[C@H](N)C(=O)NCC(=O)N(C)C1C(O)CC(N)C(OC2OC(C(C)N)CCC2N)C1O)C(=O)OC` (stereo partly drawn) [Example 49, 2"-N-{N^γ -[5-(decanoylamino)-1-(methoxycarbonyl)pentyl]-L-glutaminyl}-5-de-O-methyl-KA-6066I], the zone of inhibition at 200 µg/mL reads like this: under setting [1], 16.1 mm; under setting [2], 15.9 mm.

On to `CCCCCCCCCC(=O)NCCCNC(=O)CC[C@H](N)C(=O)NCC(=O)N(C)C1C(O)C(OC2OC(C(C)N)CCC2N)C(N)C(O)C1OC` (stereo partly drawn) [Example 50, 2"-N-[N^γ -(3-decanoylaminopropyl)-L-glutaminyl)fortimicin A], for which the zone of inhibition at 200 µg/mL is, setting by setting: under setting [1], 23.6 mm; under setting [2], 15 mm.

For `COc1ccc(CSC[C@H](N)C(=O)NCC(=O)N(C)C2C(O)CC(N)C(OC3OC(C(C)N)CCC3N)C2O)cc1` (stereo partly drawn) [Example 51, 2"-N-[S-(p-methoxybenzyl)-L-cysteinyl]-5-de-O-methyl-KA-6606I], the zone of inhibition at 200 µg/mL reads like this: under setting [1], 25.4 mm; under setting [2], 18.3 mm.

Take `CC(N)C1CCC(N)C(OC2C(N)CC(O)C(N(C)C(=O)CNC(=O)[C@@H](N)CSCc3ccc([N+](=O)[O-])cc3)C2O)O1` (stereo partly drawn) [Example 52, 2"-N-[S-(p-nitrobenzyl)-L-cysteinyl]-5-de-O-methyl-KA-6606I]: the zone of inhibition at 200 µg/mL amounted to 26.2 mm under setting [1] and 20.7 mm under setting [2].

Take `CC(N)C1CCC(N)C(OC2C(N)CC(O)C(N(C)C(=O)CNC(=O)[C@@H](N)CSC(c3ccccc3)c3ccccc3)C2O)O1` (stereo partly drawn) [Example 53, 2"-N-(S-diphenylmethyl-L-cysteinyl)-5-de-O-methyl-KA-6606I]: the zone of inhibition at 200 µg/mL by setting is: under setting [1], 24.3 mm; under setting [2], 16.5 mm.

Turning to `CC(N)C1CCC(N)C(OC2C(N)CC(O)C(N(C)C(=O)CNC(=O)[C@@H](N)CSCc3ccncc3)C2O)O1` (stereo partly drawn) [Example 54, 2"-N-[S-(4-picolyl)-L-cysteinyl]-5-de-O-methyl-KA-6606I], the zone of inhibition at 200 µg/mL amounted to 25.3 mm under setting [1] and 14.1 mm under setting [2].

As to `CCCCCCCCCC(=O)SC[C@H](N)C(=O)NCC(=O)N(C)C1C(O)CC(N)C(OC2OC(C(C)N)CCC2N)C1O` (stereo partly drawn) [Example 55, 2"-N-(S-decanoyl-L-cysteinyl)-5-de-O-methyl-KA-6606I], the zone of inhibition at 200 µg/mL reads like this: under setting [1], 18.6 mm; under setting [2], 10.3 mm.

Turning to `CCCCCCCCCC(=O)OCCCOC(=O)CC[C@H](N)C(=O)NCC(=O)N(C)C1CCC(N)C(OC2OC(C(C)N)CCC2N)C1O` (stereo partly drawn) [Example 56, 2"-N-[N^γ -(3-decanoyloxypropyl)-L-glutamyl)-5-demethoxy-KA-6606I], the zone of inhibition at 200 µg/mL was 24.6 mm under setting [1] and 17.5 mm under setting [2].

For `CCCCCCCCCC(=O)NCCCNC(=O)CC[C@H](N)C(=O)NCC(=O)N(C)C1C(OC)CC(N)C(OC2OC(CNC)CCC2N)C1O` (stereo partly drawn) [Example 57, 2"-N-[N^γ -(3-decanoylaminopropyl)-L-glutaminyl]-KA-7038I], the zone of inhibition at 200 µg/mL by setting is: under setting [1], 23 mm; under setting [2], 15.9 mm.
